3 compounds from publication PMC10011747, “Targeting androgen receptor and the variants by an orally bioavailable Proteolysis Targeting Chimeras compound in castration resistant prostate cancer” (eBioMedicine, 2023) can be followed below.

Holding throughout (format): cell-based, human
One assay relates to full-length AR. Description: AR degradation by western blot in prostate cancer cell lines. The conditions noted are these: 24 h treatment; LNCaP, CWR22Rv1, VCaP. The procedure: To obtain total lysates, cells were lysed in RIPA buffer (50 mM Tris–HCl pH 8.0, 150 mM NaCl, 1% NP-40, 0.5% Na-deoxycholate, 0.5% SDS plus protease inhibitors). The lysates were resolved by SDS-polyacrylamide gel electrophoresis, and the protein expression was analyzed by western blotting using primary antibodies against AR (Millipore Cat# 06-680, RRID:AB_310214), AR-V7 (RevMAb Biosciences Cat# 31-1109-00, RRID:AB_2716436), GAPDH (Cell Signaling Technology Cat# 2118, RRID:AB_561053) and Actin (Sigma–Aldrich Cat# A5441, RRID:AB_476744). pLenti4/TO/Flag-AR or pLenti4/TO/Flag-TC-AR plasmid was co-transfected with HA-ubiquitin plasmid into 293T cells. 24 h after transfection, the cells were treated with 10 μM of the PROTAC compounds for 16 h, followed by 4-h treatment of 5 μM MG132. The cells were lysed with lysis buffer (50 mM Tris–HCl pH7.5, 150 mM NaCl, 0. 5% Triton X-100, 10% glycerol, 1 mM EDTA plus protease inhibitors) containing 1 ng/mL of N-ethylmaleimide, followed by immunoprecipitation with anti-Flag M2 (Sigma–Aldrich Cat# F3165, RRID:AB_259529) antibody. The ubiquitinated AR was then detected by western blotting using anti-HA (Sigma–Aldrich Cat# H3663, RRID:AB_262051) antibody.
Fig. 1 PROTAC-based AR degraders ITRI-90, ITRI-125 and ITRI-126 reduce AR and AR-V7 proteins in prostate cancer cell lines. (a) Chemical structure of the PROTAC AR degraders. (b) Representative western blots of AR protein levels in LNCaP, CWR22Rv1 and VCaP cells treated with the PROTAC degraders for 24 h. AR was detected by N-terminal antibody which also detects C-terminal truncated AR-V(ΔLBD) in CWR22Rv1 cells. AR-V7 specific antibody was used for AR-V7 detection. 4%–12% gradient gel was used to separate different species of AR-V(ΔLBD) near 75 kDa in CWR22Rv1 cell lysates. DC50 indicating the concentration required to achieve 50% degradation, was calculated based on normalized full-length AR and AR-V7 band intensity. Dmax is the maximum degradation achieved at 20 μM compound treatment. TEXT PRINTED IN THE PICTURE: (a) ITRI-90: AR DC50 (μM) LNCaP: 2.12 ± 0.93; AR DC50 (μM) CWR22Rv1: 5.73 ± 2.28; AR DC50 (μM) VCaP: 8.67 ± 4.87; AR-V7 DC50 (μM) CWR22Rv1: 4.72 ± 2.52; AR-V7 DC50 (μM) VCaP: 0.29 ± 0.15; AR Dmax (%) LNCaP: 88; AR Dmax (%) CWR22Rv1: 98; AR Dmax (%) VCaP: 90; AR-V7 Dmax (%) CWR22Rv1: 100; AR-V7 Dmax (%) VCaP: 63 | (a) ITRI-125: AR DC50 (μM) LNCaP: 6.10 ± 4.43; AR DC50 (μM) CWR22Rv1: 6.64 ± 1.87; AR DC50 (μM) VCaP: 9.05 ± 3.75; AR-V7 DC50 (μM) CWR22Rv1: 1.89 ± 1.06; AR-V7 DC50 (μM) VCaP: 0.52 ± 0.37; AR Dmax (%) LNCaP: 71; AR Dmax (%) CWR22Rv1: 96; AR Dmax (%) VCaP: 85; AR-V7 Dmax (%) CWR22Rv1: 99; AR-V7 Dmax (%) VCaP: 67 | (a) ITRI-126: AR DC50 (μM) LNCaP: 3.41 ± 3.13; AR DC50 (μM) CWR22Rv1: 0.11 ± 0.02; AR DC50 (μM) VCaP: 0.851 ± 0.43; AR-V7 DC50 (μM) CWR22Rv1: 0.011 ± 0.003; AR-V7 DC50 (μM) VCaP: 0.43 ± 0.19; AR Dmax (%) LNCaP: 99; AR Dmax (%) CWR22Rv1: 74; AR Dmax (%) VCaP: 94; AR-V7 Dmax (%) CWR22Rv1: 91; AR-V7 Dmax (%) VCaP: 82
A general note: In western blotting, separated proteins are transferred to a membrane and probed.

Assay [1] concerns AR and AR-V7 target gene expression. Put plainly: qRT-PCR of AR and AR-V7 target genes. The conditions noted are these: CWR22Rv1 cells, 24 h, 5 μM. The protocol: TRIzol™ Reagent (Thermo Fisher Scientific) was used to isolate total RNA, and iScript™ cDNA Synthesis Kit (Bio-Rad, Hercules, CA, USA) was used for cDNA synthesis. The cDNA expression level of each gene was then quantified by the Bio-Rad CFX Real-Time PCR detection system using iTaq Universal SYBR Green Supermix (Bio-Rad) and primers listed in Table S1. All samples were tested in triplicate, and the expression levels were normalized against RPL13A and GAPDH cDNA levels using Bio-Rad CFX software.
A general note: Real-time PCR tracks product formation cycle by cycle.

In the next assay the test system is VCaP cells. Put plainly: MTT proliferation, VCaP with enzalutamide. The conditions noted are these: 20 μM enzalutamide, with or without 10 μM PROTAC, up to 8 days. The protocol: Cells were seeded in triplicate in 96-well plates 1 day prior to drug treatment for all assays. For viability test and IC50 assessment, the alamarBlue™ Cell Viability Reagent (Thermo Fisher Scientific) was added to cells 7 days after PROTAC treatment, followed by fluorescence detection as the manufacturer instructed. The IC50 was calculated by dose-inhibition regression. For proliferation monitoring, 2, 4, 6 and 8 days after PROTAC treatment (day 0), viable cells were detected by MTT Cell Proliferation Kit I (Sigma–Aldrich) according to the manufacturer's instructions. Cellular caspase activity was measured by Caspase-Glo 3/7 Assay System (Promega) 1 or 2 days after the drug treatment.
Fig. 6 AR degraders effectively diminish enzalutamide-induced AR-V expression and inhibit enzalutamide-resistant cell growth. (a) VCaP cells were treated with 20 μM enzalutamide (Enz) for 2 days, followed by one-day treatment of mock or 10 μM PROTAC. Full-length AR and AR-V(ΔLBD) was detected by N-terminal AR antibody (top) or AR-V7 specific antibody (middle). […] Cell proliferation was detected by MTT every 2 days after PROTAC treatment, up to 8 days. […] (c) AR protein levels in C4-2B and C4-2B/Enz^R cells treated with mock or 10 μM PROTAC compounds for 1 day were detected by anti-N-terminal-AR and anti-AR-V7 antibodies. […] Cell growth was monitored by MTT every 2 days up to 8 days. […]

With `Cc1ncsc1-c1ccc(CNC(=O)[C@@H]2C[C@H](O)CN2C(=O)[C@@H](NC(=O)COCCCCOc2ccc(C3CCN(C4=Nn5c(nnc5C(F)(F)F)CC4)CC3)cc2)C(C)(C)C)cc1` [ITRI-90 inactive, (2S,4S)-1-((S)-3,3-dimethyl-2-(2-(4-(4-(1-(3-(trifluoromethyl)-7,8-dihydro-[1,2,4]triazolo[4,3-b]pyridazin-6-yl)piperidin-4-yl)phenoxy)butoxy)acetamido)butanoyl)-4-hydroxy-N-(4-(4-methylthiazol-5-yl)benzyl)pyrrolidine-2-carboxamide], the “AR protein expression (negative control degraders)” value in the assay on full-length AR is recorded as “did not inhibit the AR protein expression”.
On to `CN1C(=O)CCC(N2Cc3c(NC(=O)COCCCCOc4ccc(C5CCN(C6=Nn7c(nnc7C(F)(F)F)CC6)CC5)cc4)cccc3C2=O)C1=O` (stereo not shown) [ITRI-126 inactive, N-(2-(1-methyl-2,6-dioxopiperidin-3-yl)-1-oxoisoindolin-4-yl)-2-(4-(4-(1-(3-(trifluoromethyl)-7,8-dihydro-[1,2,4]triazolo[4,3-b]pyridazin-6-yl)piperidin-4-yl)phenoxy)butoxy)acetamide], for which the “AR protein expression (negative control degraders)” value in the assay with full-length AR is given as “did not inhibit the AR protein expression”.
On to `CNC(=O)c1ccc(N2C(=S)N(c3ccc(C#N)c(C(F)(F)F)c3)C(=O)C2(C)C)cc1F` [enzalutamide], for which the “expression of AR-V7 target genes” value in assay [1] is on record as “specifically inhibited by the degraders but not enzalutamide”. Moreover, the “VCaP proliferation (MTT)” value in the assay on VCaP cells was “modestly inhibits VCaP proliferation”.
